Laboratory results reported in US11691989B2, “Macrocyclic indoles as Mcl-1 inhibitors” (ASCENTAGE PHARMA (SUZHOU) CO., LTD., priority 2018, dated 2023).

How the values were obtained:
[1] = Microsome clearance assay, rat; format: in vitro ADME; conditions: 0.5 mg/ml protein, 1 mM NADPH, 60 minutes; for Rat Liver Microsome Clint (μL/min/mg protein): rat liver microsomes, 5 μM; for microsomal CLint at 5 μM: male, Wister, rat, pooled liver microsomes, pH 7.4, rat liver microsomes, read-out: Rat Liver Microsome Clint (μL/min/mg protein)
Method: (§1) Representative Compounds of the Disclosure were tested in a microsome clearance assay. Pooled liver microsomes (20 mg/ml) from human, male Wister rat, and male CD-1 mouse were obtained from BD Bioscience (Franklin Lakes, N.J. USA). Incubation reaction mixtures contained a final concentration of 0.1M sodium phosphate buffer (pH 7.4), 0.5 mg/ml microsomal protein, 5 μM of test sample and 1 mM NADPH in a total volume of 400 μl. The incubations were done for 60 minutes and 300 μl of the mixtures was transferred to 150 μl of ice cold methanol to terminate reactions. After vortexes for 3 minutes and centrifuged at 4000 rpm at 4° C. for 10 minutes, the clear supernatant was used directly for analysis. The samples were analyzed by Applied Biosystems API 3200 Q TRAP LC/MS/MS system using electrospray ionization mode.

[2] = target: Mcl-1 protein (residues 171-323) (Homo sapiens (Human), UniProt Q07820); experiment: Inhibition of Mcl-1 by fluorescence polarization (FP) competitive binding assay with FAM-Bid tracer; conditions: 2 nM FAM-Bid, 20 nM Mcl-1, 30 min, read-out: Mc1-1 (FP)
Mcl-1 protein (residues 171-323), sequence (Q07820 171-323): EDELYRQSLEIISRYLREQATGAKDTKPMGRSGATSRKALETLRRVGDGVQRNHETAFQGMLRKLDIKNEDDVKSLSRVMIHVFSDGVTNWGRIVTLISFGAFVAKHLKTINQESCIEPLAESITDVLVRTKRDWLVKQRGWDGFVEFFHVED
Summary of the method: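 Competitive FP binding of compounds against FAM-Bid tracer (final 2 nM) on Mcl-1 (final 20 nM) in PBS with 0.01% BGG and 0.01% Triton X-100, 5% final DMSO.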

[3] = Microsome clearance assay, human; format: in vitro ADME; conditions: 0.5 mg/ml protein, 1 mM NADPH, 60 minutes; for Human Liver Microsome Clint (μL/min/mg protein): human liver microsomes, 5 μM; for microsomal CLint at 5 μM: human, pooled liver microsomes, pH 7.4, human liver microsomes, read-out: Human Liver Microsome Clint (μL/min/mg protein)
Method: as §1

[4] = Microsome clearance assay, mouse; format: in vitro ADME; conditions: 0.5 mg/ml protein, 1 mM NADPH, 60 minutes; for Mouse Liver Microsome Clint (μL/min/mg protein): mouse liver microsomes, 5 μM; for microsomal CLint at 5 μM: male, CD-1, mouse, pooled liver microsomes, pH 7.4, mouse liver microsomes, read-out: Mouse Liver Microsome Clint (μL/min/mg protein)
Method: as §1

NCI-H929 cells = experiment: Cell viability assay (NCI-H929 cells), CCK-8; format: cell-based; conditions: 5% FBS
Summary of the method: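 NCI-H929 cells (20000/well) exposed to serially diluted compounds for 24 h at 37 °C, 5% CO2. Viability by CCK-8, absorbance at 450 nm after 1-4 h, normalized to vehicle-treated cells. IC50 by nonlinear regression.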

[5] = Kinetic solubility assay in PBS buffer; format: physicochemical; conditions: for solubility: PBS buffer, pH 6.5, aqueous buffer, thermodynamic from solid, read-out: Solubility (pH 6.5, μg/mL)
Method: Representative Compounds of the Disclosure were tested in a kinetic solubility assay in PBS buffer. PBS buffer was prepared by dissolving 4.86 g of potassium dihydrogen phosphate and 5.09 g of disodium hydrogen phosphate dodecahydrate in 1 L of ultrapure water (final pH 6.5). 0.5 mg of test sample was dissolved in 1 mL of methanol and the stock solution was transferred into 2 mL EP tube, and evaporated at 50° C. for 3 h. To the tube was added 1 mL of PBS buffer and the mixture was stirred and shaken for 1-2 h. The solution was allowed to stand overnight and then filtered before HPLC analysis. Another 1.5 mg of the sample was dissolved in 3 mL of methanol to prepare a calibration curve with a series of concentration range of 5-500 μM. The solubility of each sample was determined by the measured peak area in HPLC.

OPM-2 cells = experiment: Cell viability assay (OPM-2 cells), CCK-8; format: cell-based; conditions: 5% FBS
Summary of the method: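 OPM-2 myeloma cells (20000/well) incubated with serially diluted compound for 24 h at 37 °C, 5% CO2. Viability read by CCK-8 (4 h) absorbance at 450 nm, normalised to vehicle; IC50 from nonlinear regression.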

Row | Structure (SMILES) | Rat Liver Microsome Clint (μL/min/mg protein) [1] [μL/min/mg protein] | IC50 [2] [nM] | Human Liver Microsome Clint (μL/min/mg protein) [3] [μL/min/mg protein] | Mouse Liver Microsome Clint (μL/min/mg protein) [4] [μL/min/mg protein] | IC50 (NCI-H929 cells; 24 hrs) [nM] | Solubility (pH 6.5, μg/mL) ([5]; PBS buffer pH 6.5) [μg/mL] | IC50 (OPM-2 cells; 24 hours) [nM] | IC50 (NCI-H929 cells; Homo sapiens, NCI-H929, 24 h) [nM] | solubility [5] [µg/mL] | IC50 (OPM-2 cells; Homo sapiens, OPM-2, 24 h) [nM] | microsomal CLint at 5 μM [1] [µL/min/mg] | microsomal CLint at 5 μM [3] [µL/min/mg] | microsomal CLint at 5 μM [4] [µL/min/mg]
1 | Cc1c(C(=O)O)n2c3ccc(Cl)c(c13)-c1c(nn(C)c1C)CSCc1cc(n(C)n1)CSc1cc(c3ccccc3c1)OCCC2 (atropisomer, axis not shown) [Cpd. No. 7, (S)-(Z)-1^5-chloro-1^3,2^1,2^5,6^1-tetramethyl-1^1H,2^1H,6^111-10-oxa-4,8-dithia-1(4,1)-indola-2(4,3),6(3,5)-dipyrazola-9(3,1)-naphthalenacyclotridecaphane-1^2-carboxylic acid] | 111 | > 1000 | 38.0 | 245 | 7440 | 6 | > 10000 | – | – | – | – | – | –
2 | Cc1c(C(=O)O)n2c3ccc(Cl)c(c13)-c1c(nn3c1CC(C)(C)C3)CSCc1cc(n(C)n1)CSc1cc(c3ccc(F)cc3c1)OCCC2 [Cpd. No. 3, (Z)-1^5-chloro-9^6-fluoro-1^3,2^5,2^5,6^1-tetramethyl-2^5,2^6-dihydro-1^1H,2^4H,6^1H-10-oxa-4,8-dithia-1(4,1)-indola-2(3,2)-pyrrolo[1,2-b]pyrazola-6(3,5)-pyrazola-9(3,1)-naphthalenacyclotridecaphane-1^2-carboxylic acid] | – | 14 | – | – | – | – | – | 391 | < 1 | 386 | – | – | –
3 | Cc1c2c(nn1C)CSCc1cc(n(C)n1)CSc1cc(c3ccccc3c1)OCCCn1c(C(=O)O)c(Cl)c3c-2c(Cl)ccc31 [Cpd. No. 9, (Z)-1^3,1^5-dichloro-2^1,2^5,6^1-trimethyl-1^1H,2^1H,6^1H-10-oxa-4,8-dithia-1(4,1)-indola-2(4,3),6(3,5)-dipyrazola-9(3,1)-naphthalenacyclotridecaphane-1^2-carboxylic acid] | – | 14 | – | – | – | – | – | 479 | > 400 | 1250 | – | – | –
4 | Cc1c(C(=O)O)n2c3ccc(Cl)c(c13)-c1c(nn3c1COCC3)CN(S(=O)(=O)c1ccccc1)Cc1cc(n(C)n1)CSc1cc(c3ccc(F)cc3c1)OCCC2 [Cpd. No. 29, (Z)-1^5-chloro-9^6-fluoro-1^3, 6^1-di methyl-4-(phenylsulfonyl)-26,27-dihydro-1^1H,2^4H,6^1H-10-oxa-8-thia-4-aza-2(3,2)-pyrazolo[5,1-c][1,4]oxazina-1(4,1)-indola-6(3,5)-pyrazola-9(3,1)-naphthalenacyclotridecaphane-1^2-carboxylic acid] | – | 35 | – | – | – | – | – | 621 | – | 1900 | 42 | 21.4 | 54.6
5 | Cc1c(C(=O)O)n2c3ccc(Cl)c(c13)-c1c(nn3c1COCC3)CN(S(=O)(=O)C1CC1)Cc1cc(n(C)n1)CSc1cc(c3ccc(F)cc3c1)OCCC2 [Cpd. No. 31, (Z)-1^5-chloro-4-(cyclopropylsulfonyl)-9^6-fluoro-1^3, 6^1-di methyl-2^6,2^7-dihydro-1^1H,2^4H,6^1H-10-oxa-8-thia-4-aza-2(3,2)-pyrazolo[5,1-c][1,4]oxazina-1(4,1)-indola-6(3,5)-pyrazola-9(3,1)-naphthalenacyclotridecaphane-1^2-carboxylic acid] | – | 16 | – | – | – | – | – | 623 | – | 1940 | 33 | 7.4 | 45.2
6 | Cc1c(C(=O)O)n2c3ccc(Cl)c(c13)-c1c(nn(C)c1C)CN(S(C)(=O)=O)Cc1cc(n(C)n1)CSc1cc(c3ccc(F)cc3c1)OCCC2 [Cpd. No. 34, (S)-(Z)-1^5-chloro-9^6-fluoro-1^3,2^1,2^5,6^1-tetramethyl-4-(methylsulfonyl)-1^1H,2^1H, 6^1H-10-oxa-8-thia-4-aza-1(4,1)-indola-2(4,3),6(3,5)-dipyrazola-9(3,1)-naphthalenacyclotridecaphane-1^2-carboxylate] | 13.0 | 2600 | <2.8 | 110 | 8520 | – | > 10000 | – | – | – | – | – | –
7 | Cc1c(C(=O)O)n2c3ccc(Cl)c(c13)-c1c(nn(C)c1C)CN(S(=O)(=O)C(F)(F)F)Cc1cc(n(C)n1)CSc1cc(c3ccc(F)cc3c1)OCCC2 [Cpd. No. 35, (Z)-1^5-chloro-9^6-fluoro-1^3,2^1,2^5,6^1-tetramethyl-4-((trifluoromethyl)sulfonyl)-1^1H,2^1H,6^1H-10-oxa-8-thia-4-aza-1(4,1)-indola-2(4,3),6(3,5)-dipyrazola-9(3,1)-naphthalenacyclotridecaphane-1^2-carboxylic acid] | – | 15 | – | – | – | – | – | 25 | – | 57 | 42 | 53.2 | 156
8 | Cc1c(C(=O)O)n2c3ccc(Cl)c(c13)-c1c(nn(C)c1C)CN(S(C)(=O)=O)Cc1cc(n(C)n1)CSc1cc(c3ccccc3c1)OCCC2 [Cpd. No. 46, (Z)-1^5-chloro-1^3,2^1,2^5,6^1-tetramethyl-4-(methylsulfonyl)-1^11-1,2^1H,6^1H-10-oxa-8-thia-4-aza-1(4,1)-indola-2(4,3),6(3,5)-dipyrazola-9(3,1)-naphthalenacyclotridecaphane-1^2-carboxylic acid] | – | 8 | – | – | – | – | – | 300 | – | 637 | 21.6 | 8 | 43.4
9 | COCCN1Cc2cc(n(C)n2)CSc2cc(c3ccc(F)cc3c2)OCCCn2c(C(=O)O)c(C)c3c(c(Cl)ccc32)-c2c(nn3c2COCC3)C1 [Cpd. No. 50, (Z)-1^5-chloro-9^6-fluoro-4-(2-methoxyethyl)-1^3, 6^1-dim ethyl-2^6,2^7-dihydro-1^1H,2^4H,6^1H-10-oxa-8-thia-4-aza-2(3,2)-pyrazolo[5,1-c][1,4]oxazina-1 (4,1)-indola-6(3,5)-pyrazola-9(3,1)-naphthalenacyclotridecaphane-1^2-carboxylic acid] | – | 20 | – | – | – | – | – | 226 | – | 1640 | 22.2 | 10.2 | 65.2
10 | Cc1c(C(=O)O)n2c3ccc(Cl)c(c13)-c1c(nn3c1COCC3)CN(CCNS(C)(=O)=O)Cc1cc(n(C)n1)CSc1cc(c3ccc(F)cc3c1)OCCC2 [Cpd. No. 51, (Z)-1^5-chloro-9^6-fluoro-1^3, 6^1-di methyl-4-(2-(methylsulfonamido)ethyl)-26,27-dihydro-1^1H,2^4H,6^1H-10-oxa-8-thia-4-aza-2(3,2)-pyrazolo[5,1-c][1,4]oxazina-1(4,1)-indola-6(3,5)-pyrazola-9(3,1)-naphthalenacyclotridecaphane-1^2-carb oxylic acid] | – | 17 | – | – | – | – | – | 1540 | – | 5820 | 15 | 7.4 | 30.6
11 | Cc1c(C(=O)O)n2c3ccc(Cl)c(c13)-c1c(nn(C)c1C)CN(C(C)C)Cc1cc(n(C)n1)CSc1cc(c3ccc(F)cc3c1)OCCC2 [Cpd. No. 53, (Z)-1^5-chloro-9^6-fluoro-4-isopropyl-1^3,2^1,2^5,6^1-tetramethyl-1^1H,2^1H,6^1H-10-oxa-8-thia-4-aza-1(4,1)-indola-2(4,3),6(3,5)-dipyrazola-9(3,1)-naphthalenacyclotridecaphane-1^2-carboxylic acid] | – | 34 | – | – | – | – | – | 222 | – | 1710 | 30 | 18.6 | 59.2
